Measured values: paper PMC12051055, “Spectroscopy and crystallography define carotenoid oxygenases as a new subclass of mononuclear non-heme Fe^II enzymes” (The Journal of Biological Chemistry, 2025)
pKd: −log10 of the molar value.

Molecular target: T1, CAO1 (Neurospora crassa carotenoid oxygenase 1) (Neurospora crassa, UniProt Q7S860)
T1 construct: gene cao-1
T1 sequence (Q7S860 1-526): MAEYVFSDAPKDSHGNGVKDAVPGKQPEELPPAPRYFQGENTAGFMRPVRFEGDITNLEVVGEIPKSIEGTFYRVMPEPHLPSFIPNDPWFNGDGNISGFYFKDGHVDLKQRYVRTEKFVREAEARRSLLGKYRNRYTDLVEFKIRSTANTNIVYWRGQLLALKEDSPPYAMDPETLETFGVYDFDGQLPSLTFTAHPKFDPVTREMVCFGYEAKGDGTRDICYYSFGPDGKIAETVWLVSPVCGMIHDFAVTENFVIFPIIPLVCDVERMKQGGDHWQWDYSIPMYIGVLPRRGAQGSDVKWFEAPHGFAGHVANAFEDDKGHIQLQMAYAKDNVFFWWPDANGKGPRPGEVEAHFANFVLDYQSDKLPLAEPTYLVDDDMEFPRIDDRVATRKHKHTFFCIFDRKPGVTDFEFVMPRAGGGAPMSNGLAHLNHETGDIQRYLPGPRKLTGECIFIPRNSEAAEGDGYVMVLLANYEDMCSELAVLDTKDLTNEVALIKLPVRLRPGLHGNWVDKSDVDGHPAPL
Experiment: UV-visible/CD titration of Fe(II)-CAO1 (anaerobic); also X-ray crystal structure, MCD, steady-state kinetics
Format: binding

## Oc1cc(O)cc(/C=C/c2ccc(O)c(O)c2)c1 [piceatannol]
  pKd: 7.30
